Experimental data from patent US20080038728A1, “Quadruple Transformed Cell Line Useful for the Identification of Transport Inhibitors” (priority 2004, published 2008).
Read-outs that look alike come from different tables or passages of the source.

Tests used:
[1] = test system: OATP1B1, OATP1B3, and OATP2B1; assay: Uptake (intracellular accumulation) kinetics in ABCC2/OATP1B1/1B3/2B1 quadruple-transfected MDCKII cells; format: in vitro ADME, human; conditions: for Km: human
Experimental: (§1) (a) MDCKII cells were grown on ThinCerts (24-mm diameter, pore size 0.4 μm, pore density 1×10^8 per cm^2) and induced with butyrate as mentioned above. The cells were washed in prewarmed (37° C.) transport buffer (142 mM NaCl, 5 mM KCl, 1 mM KH2PO4, 1.2 mM MgSO4, 1.5 mM CaCl2, 5 mM glucose, and 12.5 mM HEPES, pH 7.3). The ^3H-labeled substrate was dissolved in transport buffer and added either to the apical or to the basolateral compartment at the concentration indicated. After incubation at 37° C., the radioactivity in the opposite compartment was measured by sampling aliquots from the apical or basolateral compartment. Cells were washed 2 times with ice-cold transport buffer containing 0.5% bovine serum albumin and 3 times in ice-cold transport buffer. Intracellular accumulation of radioactivity was calculated by lyzing the cells with 0.2% sodium dodecyl sulfate (SDS) and measuring the radioactivity in the lysate.

[2] = target: T1, OATP1B3 (Homo sapiens, UniProt Q9NPD5); conditions: BSP uptake, background section; cited from earlier work
T1 sequence (Q9NPD5 1-702): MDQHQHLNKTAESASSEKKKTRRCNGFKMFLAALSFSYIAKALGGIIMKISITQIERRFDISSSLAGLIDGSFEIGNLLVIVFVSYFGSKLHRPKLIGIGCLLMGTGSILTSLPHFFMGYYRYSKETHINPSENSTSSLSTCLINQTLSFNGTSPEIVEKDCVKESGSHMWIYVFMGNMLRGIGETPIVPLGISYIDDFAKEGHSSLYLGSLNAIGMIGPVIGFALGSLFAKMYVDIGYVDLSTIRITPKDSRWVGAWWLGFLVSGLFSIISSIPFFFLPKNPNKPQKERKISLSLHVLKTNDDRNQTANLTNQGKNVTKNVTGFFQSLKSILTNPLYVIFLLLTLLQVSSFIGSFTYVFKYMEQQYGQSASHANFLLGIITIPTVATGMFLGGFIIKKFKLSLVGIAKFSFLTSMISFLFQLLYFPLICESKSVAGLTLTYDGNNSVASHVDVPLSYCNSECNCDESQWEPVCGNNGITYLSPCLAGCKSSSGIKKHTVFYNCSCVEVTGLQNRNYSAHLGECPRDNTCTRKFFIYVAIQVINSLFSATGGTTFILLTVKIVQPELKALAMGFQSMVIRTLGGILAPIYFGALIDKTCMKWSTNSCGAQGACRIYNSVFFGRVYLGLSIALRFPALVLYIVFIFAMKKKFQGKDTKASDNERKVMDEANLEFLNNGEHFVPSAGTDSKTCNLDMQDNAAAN

[3] = target: T2, OATP1B1 (Homo sapiens, UniProt Q9Y6L6); conditions: BSP uptake, background section; cited from earlier work
T2 sequence (Q9Y6L6 1-691): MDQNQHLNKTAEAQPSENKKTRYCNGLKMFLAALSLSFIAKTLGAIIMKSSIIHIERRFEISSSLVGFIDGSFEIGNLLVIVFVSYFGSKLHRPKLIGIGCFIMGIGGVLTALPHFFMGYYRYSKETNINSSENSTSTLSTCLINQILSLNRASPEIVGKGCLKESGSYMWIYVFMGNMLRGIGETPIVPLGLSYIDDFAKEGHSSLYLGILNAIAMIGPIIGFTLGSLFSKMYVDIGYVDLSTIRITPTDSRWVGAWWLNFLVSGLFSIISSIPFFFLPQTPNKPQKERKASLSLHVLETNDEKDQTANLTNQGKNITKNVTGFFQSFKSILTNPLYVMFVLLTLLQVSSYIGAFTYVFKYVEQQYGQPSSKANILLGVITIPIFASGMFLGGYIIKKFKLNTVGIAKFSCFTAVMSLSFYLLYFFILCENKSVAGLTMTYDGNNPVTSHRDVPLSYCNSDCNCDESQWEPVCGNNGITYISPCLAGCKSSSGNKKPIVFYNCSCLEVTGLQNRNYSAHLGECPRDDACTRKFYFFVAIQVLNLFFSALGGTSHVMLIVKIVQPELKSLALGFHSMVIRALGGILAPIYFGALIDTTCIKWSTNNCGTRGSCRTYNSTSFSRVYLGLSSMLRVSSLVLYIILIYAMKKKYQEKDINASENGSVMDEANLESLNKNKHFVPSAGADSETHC

[4] = target: ABCC2 (Homo sapiens, UniProt Q92887); design: expressed in transfected cells; host or cells: MDCKII-ABCC2 single-transfected cells (membrane vesicles); conditions: BSP: Cui et al., 2001; CCK-8: Letschert et al., 2005; cited from earlier work
[5] = target: T1, OATP1B3; assay: Uptake (intracellular accumulation) kinetics in ABCC2/OATP1B3 double-transfected MDCKII cells; format: in vitro ADME; design: expressed in transfected cells; host or cells: MDCKII (canine kidney), co-expressing ABCC2
Experimental: as §1

ABCC2, sequence (Q92887 whole entry): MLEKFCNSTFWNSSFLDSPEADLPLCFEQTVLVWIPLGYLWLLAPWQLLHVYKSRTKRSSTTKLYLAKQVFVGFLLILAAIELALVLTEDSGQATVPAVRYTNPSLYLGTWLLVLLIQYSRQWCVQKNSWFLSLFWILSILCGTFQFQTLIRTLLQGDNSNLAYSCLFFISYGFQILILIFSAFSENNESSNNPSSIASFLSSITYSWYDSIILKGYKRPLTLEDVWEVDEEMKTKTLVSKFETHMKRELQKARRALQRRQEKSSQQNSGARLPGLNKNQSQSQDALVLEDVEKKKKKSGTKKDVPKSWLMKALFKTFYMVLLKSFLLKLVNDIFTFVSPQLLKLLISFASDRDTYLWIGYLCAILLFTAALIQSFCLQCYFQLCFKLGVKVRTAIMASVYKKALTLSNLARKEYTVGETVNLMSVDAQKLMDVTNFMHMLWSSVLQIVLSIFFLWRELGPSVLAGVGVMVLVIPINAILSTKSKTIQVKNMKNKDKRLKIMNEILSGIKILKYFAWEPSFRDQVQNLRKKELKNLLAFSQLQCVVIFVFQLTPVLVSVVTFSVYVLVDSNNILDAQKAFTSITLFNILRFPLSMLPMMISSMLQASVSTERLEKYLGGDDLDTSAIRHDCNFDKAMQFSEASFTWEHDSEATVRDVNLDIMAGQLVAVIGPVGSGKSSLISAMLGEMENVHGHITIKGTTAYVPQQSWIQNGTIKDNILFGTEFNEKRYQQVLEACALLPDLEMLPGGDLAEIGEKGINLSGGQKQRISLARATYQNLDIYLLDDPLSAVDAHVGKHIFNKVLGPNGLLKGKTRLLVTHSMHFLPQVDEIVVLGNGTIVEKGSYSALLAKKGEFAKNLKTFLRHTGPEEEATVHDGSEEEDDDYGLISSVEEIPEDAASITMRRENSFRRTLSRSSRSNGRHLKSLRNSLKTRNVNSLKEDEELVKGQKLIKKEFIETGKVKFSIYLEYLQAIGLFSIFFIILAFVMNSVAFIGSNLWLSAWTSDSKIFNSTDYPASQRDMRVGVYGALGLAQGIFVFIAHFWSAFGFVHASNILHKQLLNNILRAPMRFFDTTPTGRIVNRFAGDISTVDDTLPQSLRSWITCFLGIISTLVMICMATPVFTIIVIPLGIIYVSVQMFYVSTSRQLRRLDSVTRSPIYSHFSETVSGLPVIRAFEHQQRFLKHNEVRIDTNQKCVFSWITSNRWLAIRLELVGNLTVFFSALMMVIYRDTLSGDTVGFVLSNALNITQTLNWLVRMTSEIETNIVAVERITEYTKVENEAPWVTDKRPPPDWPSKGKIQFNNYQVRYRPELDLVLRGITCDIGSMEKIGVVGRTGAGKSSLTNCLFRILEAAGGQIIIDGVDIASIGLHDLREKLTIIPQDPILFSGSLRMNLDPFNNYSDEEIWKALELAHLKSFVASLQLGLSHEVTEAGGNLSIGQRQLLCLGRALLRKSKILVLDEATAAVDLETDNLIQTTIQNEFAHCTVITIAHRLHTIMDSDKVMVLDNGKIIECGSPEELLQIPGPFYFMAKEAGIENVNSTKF

SMILES: O=C1OC(c2ccc(O)c(S(=O)(=O)O)c2)(c2ccc(O)c(S(=O)(=O)O)c2)c2c(Br)c(Br)c(Br)c(Br)c21 [Bromosulfophthalein]
- maximal velocity ([1]; ABCC2/OATP1B1/1B3/2B1 quadruple-transfectants): 197.8 pmol×mg protein×min^−1
- Vmax ([1]; cell line ABCC2-OATP1B1/1B3/2B1 (quadruple-transfectant), intracellular accumulation of 3H-labeled substrate): 197.8 ± 3.0 pmol · mg protein^−1 · min^−1
- Km ([1]; pH 7.3, cell line ABCC2-OATP1B1/1B3/2B1 (quadruple-transfectant), intracellular accumulation of 3H-labeled substrate, read-out: Km): 4.8 µM
- Km ([1]; pH 7.3, summary bound for the OATPs, referring to Table 1, read-out: Km values for the OATPs): < 5 µM
- Km [2]: 3.4 µM
- Km [3]: 0.14 µM
- Km [4]: 12 µM
- Vmax ([5]; cell line ABCC2-OATP1B3, intracellular accumulation of 3H-labeled substrate): 82.7 ± 4.0 pmol · mg protein^−1 · min^−1
- Km at 5 min ([5]; human, pH 7.3): 2.2 µM
